Measured values as given in patent US9476883B2, “Cellular recognition conjugates and methods of use for the histological analysis of cancer tissue using MALDI-MS imaging” (GEORGIA STATE UNIVERSITY RESEARCH FOUNDATION, priority 2011, dated 2016).
“Also recorded” adds a separate entry of the source.

What was measured:
[1] = test system: cells expressing sialyl Lewis X antigen; assay: MALDI-IMS imaging of a renal cell carcinoma tissue slice incubated with the imaging agent; format: binding; conditions: fresh-frozen renal tissue with tumor and normal regions, 7 μm slice, 2 ng/μl in methanol, overnight at 4° C., no matrix
Method: A tissue slice containing renal cell carcinoma was immunostained (mouse monoclonal antibody, GenWay Biotech San Diego, Calif.) that expressed regions coincident with the tumor area (dark stained bottom tip area of FIG. 3; confirmed by pathological analysis).
An adjacent tissue slice (7 μm) was placed on a conductive slide and incubated with the imaging agent of Example 3 in 100% methanol (2 ng/μl) in a humid chamber overnight at 4° C. Slides were washed for 5 minutes in PBS followed by brief water wash to remove any unbound material. The slides are placed in a desiccator for 20 minutes and analyzed directly by MALDI-TOF (no matrix is added) in the reflectron mode using a laser raster width of 200 μm.
The stabilized carbocation is used in this example located and confirm immunological and pathology analysis of this sample that the MALDI indicated region corresponded to the area associated with cancerous tissue.

[2] = test system: renal cell carcinoma tissue; assay: MALDI-IMS of alcohol fixed (UMFIX/Sakura) renal cell carcinoma tissue exposed to the imaging agent; format: binding
Source text: FIG. 4 depicts the MALDI-IMS of a renal cell carcinoma tissue sample exposed to the imaging agent of Example 3. FIG. 5 depicts the same tissue sample stained with Sakura/UMFx alcohol.
These red pixels correlate to the MALDI peaks in the spectra shown in FIG. 1 and the color intensity is related to peak abundance as shown in the expression scale. Peaks were obtained in the absence of any chemical matrix. […] As such, this provides a method for probing tumor tissue microarrays prepared from alcohol or formalin fixed tissues.

COc1ccc(C(SCCC(=O)NCCCn2cc(COc3cc(C(=O)N(C)Cc4c5ccccc5c(CN(C)Cc5ccccc5B(O)O)c5ccccc45)ccc3C(=O)N(C)Cc3c4ccccc4c(CN(C)Cc4ccccc4B(O)O)c4ccccc34)nn2)(c2ccc(OC)cc2)c2ccc(OC)c(C#CCCC(=O)NCc3ccccc3)c2)cc1 [Example 3, [({[({[({2-[(1-{3-[({3-[5-(Benzylamino)-5-oxopent-1-yn-1-yl]-4-methoxyphenyl}bis(4-methoxyphenyl)methyl)thio]propanamido}prop-3-yl)-1H-1,2,3-triazol-4-yl]methoxy}terephthaloyl)bis(methylazanediyl)]bis(methylene)}bis(anthracene-10,9-diyl))bis(methylene)]bis(methylazanediyl)}bis(methylene))bis(2,1-phenylene)]-diboronic acid]
binding of the imaging agent to tissue, detected as stabilized carbocation in MALDI-IMS [1]: bound only to the cells expressing sialyl Lewis X antigen | binding of the imaging agent to alcohol fixed tumor tissue [2]: affixed to the cell surface; also recorded: capable of binding to alcohol fixed renal tissues
